System: P. acnes (ATCC 6919)
Test: ΣFIC assay against P. acnes (checkerboard MIC, alamar blue)
Format: cell-based, Propionibacterium acne (P. acnes)
Settings: P. acnes ATCC 6919 in LB, anaerobic 37° C. 50 hours, lowest concentration giving complete growth inhibition; for MIC: Cutibacterium acnes, ATCC6919, single active alone, read-out: MIC (Minimum Inhibition Concentration)
Experimental: Synergistic interaction between the essential oil active and the AML compounds was determined using the ΣFIC assay against P. acnes. A brief description of the method is given below.
Methods: ΣFIC Assay Against P. acnes
P. acnes (ATCC 6919) is inoculated on Reinforced Clostridial Medium Agar plate (RCMA, solution A) and cultured anaerobically in an anaerobic jar at 37° C. for 72 to 96 hours. A single colony was cultured into Reinforced Clostridial Medium (RCM, solution B) and incubated anaerobically at 37° C. for 72 to 96 hours. Final cell density is adjusted to around 5×10^7 cells/ml by diluting using RCM. Then the inoculum is further diluted 1:1000 into Luria-Bertani medium (LB, solution C) to get around 5*10^4 cell/ml.
Essential oil active was serially diluted (2-fold) to prepare in a range of 10 to 10,000 ppm in the LB growth medium. The AML compound was serially diluted (2-fold) to prepare in a range of 15.6 to 1000 ppm for sapienic acid, and palmitoleic acid; and 2-125 ppm for other AMLs in the LB growth medium.
Binary combinations of essential oil and AML compound were prepared in 96-well plate by mixing 20 μl of essential oil solution with 20 μl of AML compound. The solution in each well were further mixed with 160 μl of P. acnes in LB. The final cell density in the testing plate is around 4*10^4 cell/ml, and the final concentration of actives in each well of the 96-well plate were shown below.
The fatty acid AML sapienic acid and palmitoleic acid compound concentrations (in ppm): 100, 50, 25, 12.5, 6.25, 3.13, 1.56, and 0. The sphingosine AML compound concentrations (in ppm): 12.5, 6.3, 3.1, 1.6, 0.8, 0.4, 0.2 and 0.
The plate was incubated anaerobically at 37° C. for 50 hours. Then 20 μl of alamar blue (0.01%) was added into each well with a further incubation aerobically for two to three days to observe the color change. Red color indicates microbial growth and the non-changing blue color indicates no growth. In addition, it was also confirmed that the testing compound alone will not cause color change of alamar blue with a control mixture without adding microbes.
The MIC is defined as the absolute lowest concentration of active that provides complete microbial growth inhibition as indicated by the blue color of alamar blue under the tested condition.
The differing behaviour of inhibitory antimicrobials in isolation and mixtures have been widely explored using the concept of the Fractional Concentration (FC) and Fractional Inhibitory Concentration (FIC). The parameter can be defined as follows: […]
These relationships can be expressed mathematically by summing the fractional MIC values for all the components present in the mixture to give the “fractional inhibition index”. There is no consistent approach in the academic or patent literature in defining precise limiting ΣFIC values that differentiate synergy from additivity or antagonism. In this study, we have adopted a liberal approach defining any binary mixture with ΣFIC<0.9 as showing evidence of synergistic behavior.
ΣFIC=FIC (component 1)+FIC (component 2)
ΣFIC=1 corresponds to additive microbial activity
ΣFIC>1 corresponds to antagonistic microbial activity
ΣFIC<0.9 corresponds to synergistic microbial activity
Based on the concentration range of the essential oil actives (0 to 1000 ppm) and the AML compound (0 to 100 ppm) at which the experiments were carried out, the ΣFIC of the combinations is given below in Table-1.

| SMILES | MIC (Minimum Inhibition Concentration) (single active alone) [ppm] | MIC [µg/mL] |
| --- | --- | --- |
| CCCCCCCCCCCCCCC[C@@H](O)[C@@H](N)CO [dihydrosphingosine] | 0.2 | – |
| CCCCCCCCCCCCCC[C@@H](O)[C@@H](O)[C@@H](N)CO [phytosphingosine] | – | 0.2 |
| CCCCCCCCCCCCC/C=C/[C@@H](O)[C@@H](N)CO [sphingosine] | – | 0.4 |

Further lines, results first:

| MIC (Minimum Inhibition Concentration) (single active alone) [ppm] | MIC [µg/mL] | SMILES |
| --- | --- | --- |
| – | 1 | CCCCCC/C=C\CCCCCCCC(=O)O [palmitoleic acid] |
| – | 62.5 | Cc1ccc(C(C)C)c(O)c1 [thymol] |

From patent US20210030646A1, “AN ANTIMICROBIAL COMPOSITION COMPRISING ESSENTIAL OIL AND ANTIMICROBIAL LIPID” (Conopco, Inc., d/b/a UNILEVER, priority 2017, published 2021)
